# Results as given in US11058690B2, “Use of cytochrome bc1 complex inhibitor in preparing pharmaceutical composition” (BEIJING WEILANZHIYUAN MEDICAL TECHNOLOGY CO., LTD., priority 2017, dated 2021).
# Read-outs that look alike come from different tables or passages of the source.
# Experiments:
# [1] = test system: rat uterine smooth muscle; experiment: contraction of isolated rat uterine smooth muscle strips induced by PGF2α; type: cell-based; settings: for inhibitory effect on PGF2α-induced contraction: amplitude and frequency; for IC50: read-out: IC50, inhibition of uterine smooth muscle contraction
# Protocol: Female healthy Wistar rats weighing 230-270 g were used in the experiment. At 2 days before the experiment, Diethylstilbestrol suspension was injected intraperitoneally once at 0.1 mg/kg, resulting in artificial estrus. The rats were sacrificed by cervical dislocation, and the uterus was removed by laparotomy and immediately placed in a glass plate containing Tyrode's solution. Connective and adipose tissues attached to the uterine wall were carefully peeled off, the uterus was cut open along the mesangial line and laid flat on the bottom of the glass plate, then one side of the uterus was divided into left and right uterine muscle strips by using a surgical blade along the uterine contraction band running along smooth muscle, the two ends of the uterine muscle strip on one side were ligated with wires respectively, and then transferred into a nutrient tube which was aerated with oxygen and filled with 5 ml of Tyrode's solution and preheated to 37.2±0.5° C., with a lower end fixed and an upper end connected with a tension sensor. The materials stood for 20-30 minutes, liquid was changed 2-3 times, then the uterus was given a load of 1 g and kept for 30-60 minutes until the uterus had regular contraction waves, 40 mM KCL solution was provided for 10 minutes, and the function of the uterine muscle strips was evaluated. Then the muscle strips were relaxed and washed 2-3 times with Tyrode's solution, then let stand for 30 minutes; after standing, the uterine muscle strips were given a load of 1 g and kept for 30-60 minutes, and the administration and the observation were carried out after the uterine muscle strips contracted stably (i.e. regular contraction waveforms appear in a microcomputer display screen), the changes of relevant data such as contraction tension, amplitude and area under the contraction curve of the uterine smooth muscle strips were recorded, and the drug given was evaluated. During the experiment, the working temperature of the Tyrode's solution was kept at 37.2±0.5° C., and oxygen was continuously aerated into the nutrient tube with 1-2 bubbles per second. A cumulative dosing method was adopted, and 5 μl was administered each time, from low concentration to high concentration. A final drug concentration refers to the concentration of the drug dissolved in 5 ml Tyrode's solution in a […] tube.
# Fluacrypyrim (FAPM), the first strobilurin acaricide developed by BASF SE and Nippon Soda Co., Ltd., is a Qo site inhibitor of the mitochondrial cytochrome bc1 complex. […] The area under the smooth muscle contraction curve was calculated before drug intervention and 10 minutes after different doses of drug intervention respectively. A drug dose-effect curve was plotted by taking the area under the smooth muscle contraction curve caused by PGF2α as 100%, to calculate the median effective dose (IC50 value) of the drug for inhibiting uterine smooth muscle contraction.
# [2] = test system: Mouse mononuclear macrophage RAW 264.7; experiment: nitric oxide production by LPS-stimulated macrophages (Griess assay); type: cell-based; settings: for Maximum inhibition rate: in %; for IC50: read-out: IC50, NO production
# Kunming male mice = experiment: acetic acid writhing test on mice; type: in vivo, mouse; settings: for curative effect compared with indomethacin: 100 mg/Kg versus indomethacin 50 mg/Kg; for writhe starting time (reaction latency) compared with control group: FAPM and trifloxystrobin intraperitoneal, azoxystrobin intragastric
# Kunming female mice [3] = experiment: PGF2α-induced dysmenorrhea model in mice (diethylstilbestrol sensitization); type: in vivo, mouse; settings: for Writhe starting time / Number of writhing times: Table 8; for Number of writhing times: within 30 min
# Protocol: (§1) A mouse dysmenorrhea model was established with reference to Yang L., Cao Z., Yu B. & Chai C. An in vivo mouse model of primary dysmenorrhea. Exp Anim. 2015, August 64, 295-303. Adult healthy Kunming female mice were randomly grouped, 10 mice in each group. Experimental mice were intragastrically given diethylstilbestrol 0.2 mg daily for 12 days. Different kinds and dosages of the inhibitors of the cytochrome bc1 complex were given intraperitoneally or intragastrically 30 min after the last administration. Indometacin (50 mg/kg) was injected intraperitoneally as positive control, PGF2α (1.3 mg/kg) or oxytocin (20 U/kg) was injected intraperitoneally 1 h later, and the writhe starting time (reaction latency) and the number of writhing times within 30 min were observed and recorded.
# Kunming female mice [4] = experiment: oxytocin-induced dysmenorrhea model in mice (diethylstilbestrol sensitization); type: in vivo, mouse; settings: for Writhe starting time / Number of writhing times: Table 9; for Number of writhing times: within 30 min
# Protocol: as §1
# [5] = PGF2α (450 nM), area under the contraction curve 10 minutes after drug
# [6] = Table 6, 200 mg/Kg intragastric
# [7] = Table 6, 200 mg/Kg intragastric, within 30 min
# [8] = 50 mg/Kg versus indomethacin 50 mg/Kg
# [9] = Rattus norvegicus, 10 min, PGF2α (450 nM), area under the contraction curve 10 minutes after drug
# [10] = Mus musculus, RAW264.7, LPS 1 μg/mL, 24 h
smiles,measurement,setting,value
"C/C=C(C)/C=C/C=C/[C@H](OC)[C@@H](C)[C@@H](OC)[C@@H](C)CCc1oc2c(O)c(OC)cc(OC)c2c(=O)c1C [Stigmatellin, reference compound]",inhibitory effect on PGF2α-induced contraction,[1]; PGF2α (450 nM),strongest inhibitory effect
same,IC50 values (level in words),[1]; PGF2α-induced,nanomolar level
same,IC50,"[1]; Rattus norvegicus, PGF2α-induced",0.0899 µM
same,Maximum inhibition rate,"[2]; LPS 1 μg/mL, 24 h",88.3±3.9%
same,IC50,"[2]; Mus musculus, RAW264.7, 24 h",0.00624 ± 0.00115 µM
"CNC(=O)/C(=N/OC)c1ccccc1COc1cc(C)ccc1C [Dimoxystrobin, dimoxystrobin]",IC50,[1]; [5],1.65 ± 0.12 µM
same,Writhe starting time,Kunming male mice; 200 mg/Kg intragastric,not prolonged
same,effect on number of writhing times,Kunming male mice; 200 mg/Kg intragastric,obviously inhibited
same,Writhe starting time,Kunming male mice; [6],3.3 ± 0.5 min
same,Number of writhing times,Kunming male mice; [7],31.5 ± 4.7
CO/C=C(/C(=O)OC)c1ccccc1Oc1cc(Oc2ccccc2C#N)ncn1 [azoxystrobin],IC50,[1]; [5],1.7 ± 0.12 µM
same,Maximum inhibition rate,"[2]; LPS 1 μg/mL, 24 h",86.7 ± 4.3%
same,IC50,"[2]; LPS 1 μg/mL, 24 h",1.89 ± 0.35 µM
same,curative effect compared with indomethacin,Kunming male mice,equivalent to indomethacin at 50 mg/Kg
same,writhe starting time (reaction latency) compared with control group,Kunming male mice,not significantly prolonged
same,Writhe starting time,"Kunming male mice; Table 5, 50 mg/Kg intragastric",3.2 ± 1.1 min
same,Number of writhing times,"Kunming male mice; Table 5, 50 mg/Kg intragastric, within 30 min",31.9 ± 3.1
same,Writhe starting time,"Kunming male mice; Table 5, 100 mg/Kg intragastric",3.4 ± 1.8 min
same,Number of writhing times,"Kunming male mice; Table 5, 100 mg/Kg intragastric, within 30 min",24.9 ± 4.6
same,Writhe starting time,"Kunming male mice; Table 5, 200 mg/Kg intragastric",3.7 ± 1.5 min
same,Number of writhing times,"Kunming male mice; Table 5, 200 mg/Kg intragastric, within 30 min",21.6 ± 3.5
same,Writhe starting time,"Kunming male mice; Table 5, 400 mg/Kg intragastric",3.4 ± 1.2 min
same,Number of writhing times,"Kunming male mice; Table 5, 400 mg/Kg intragastric, within 30 min",12.4 ± 4.2
same,curative effect compared with indomethacin,Kunming female mice [3]; [8],equivalent to indomethacin at 50 mg/Kg
same,effect on number of writhing times,"Kunming female mice [3]; FAPM intraperitoneal, azoxystrobin intragastric, 50, 100 and 200 mg/Kg one hour before",in a dose-dependent manner
same,Writhe starting time,Kunming female mice [3]; 50 mg/Kg intragastric,2.1 ± 1.0 min
same,Number of writhing times,Kunming female mice [3]; 50 mg/Kg intragastric,17.7 ± 1.9
same,Writhe starting time,Kunming female mice [3]; 100 mg/Kg intragastric,2.0 ± 1.1 min
same,Number of writhing times,Kunming female mice [3]; 100 mg/Kg intragastric,12.8 ± 2.4
same,Writhe starting time,Kunming female mice [3]; 200 mg/Kg intragastric,2.2 ± 0.8 min
same,Number of writhing times,Kunming female mice [3]; 200 mg/Kg intragastric,10.3 ± 1.3
same,curative effect compared with indomethacin,Kunming female mice [4]; [8],equivalent to 50 mg/Kg of indomethacin
same,Writhe starting time,Kunming female mice [4]; 50 mg/Kg intragastric,3.3 ± 1.5
same,Number of writhing times,Kunming female mice [4]; 50 mg/Kg intragastric,24.2 ± 4.1
same,Writhe starting time,Kunming female mice [4]; 100 mg/Kg intragastric,3.9 ± 1.5
same,Number of writhing times,Kunming female mice [4]; 100 mg/Kg intragastric,14.2 ± 2.2
same,Writhe starting time,Kunming female mice [4]; 200 mg/Kg intragastric,3.3 ± 1.3
same,Number of writhing times,Kunming female mice [4]; 200 mg/Kg intragastric,7.6 ± 1.9
same,effect on number of writhing times,"Kunming female mice [4]; intragastric 50, 100 and 200 mg/Kg",in a dose-dependent manner
"CC(C)c1c(C(=O)Nc2ccccc2)c(-c2ccccc2)c(-c2ccc(F)cc2)n1CC[C@@H](O)C[C@@H](O)CC(=O)O [atorvastatin, reference compound]",IC50,[1]; [9],8.44 ± 0.7 µM
"COC(=O)N(OC)c1ccccc1COc1ccn(-c2ccc(Cl)cc2)n1 [Pyraclostrobin, pyraclostrobin]",IC50,[1]; [9],1.05 ± 0.01 µM
CO/N=C(/C(=O)OC)c1ccccc1COc1ccccc1C [kresoxim-methyl],IC50,[1]; [9],4.08 ± 0.29 µM
same,Maximum inhibition rate,"[2]; LPS 1 μg/mL, 24 h",88.7 ± 5.6%
same,IC50,[2]; [10],2.77 ± 0.69 µM
same,Writhe starting time,Kunming male mice; 200 mg/Kg intragastric,not prolonged
same,effect on number of writhing times,Kunming male mice; 200 mg/Kg intragastric,obviously inhibited
same,Writhe starting time,Kunming male mice; [6],3.4 ± 1.0 min
same,Number of writhing times,Kunming male mice; [7],33.0 ± 2.9
"CO/C(=C/C(N)=O)[C@H](C)[C@H](/C=C/c1csc(-c2csc([C@@H](C)/C=C/C=C/C(C)C)n2)n1)OC [Myxothiazol, myxothiazol, reference compound]",inhibitory effect on PGF2α-induced contraction,[1]; PGF2α (450 nM),strongest inhibitory effect
same,IC50 values (level in words),[1]; PGF2α-induced,nanomolar level
same,IC50,[1]; PGF2α-induced,0.215 µM
same,Maximum inhibition rate,"[2]; LPS 1 μg/mL, 24 h",95%
same,IC50,"[2]; LPS 1 μg/mL, 24 h",0.0028 µM
"O=C1C(O)=C([C@H]2CC[C@H](c3ccc(Cl)cc3)CC2)C(=O)c2ccccc21 [atovaquone, reference compound]",IC50,[1]; [9],8.44 ± 0.7 µM
"CO/C=C(/C(=O)OC)c1ccccc1COc1cccc(C(F)(F)F)n1 [Picoxystrobin, picoxystrobin]",IC50,[1]; [5],1.2 ± 0.02 µM
same,Writhe starting time,Kunming male mice; 200 mg/Kg intragastric,not prolonged
same,effect on number of writhing times,Kunming male mice; 200 mg/Kg intragastric,obviously inhibited
same,Writhe starting time,Kunming male mice; [6],3.3 ± 1.0 min
same,Number of writhing times,Kunming male mice; [7],29.3 ± 4.7
CON=C(C(=O)OC)c1ccccc1CON=C(C)c1cccc(C(F)(F)F)c1 [trifloxystrobin],IC50,[1]; [9],1.77 ± 0.05 µM
same,Maximum inhibition rate,"[2]; LPS 1 μg/mL, 24 h",90.7 ± 2.9%
same,IC50,[2]; [10],0.64 ± 0.21 µM
same,curative effect compared with indomethacin,Kunming male mice,equivalent to indomethacin at 50 mg/Kg
same,writhe starting time (reaction latency) compared with control group,Kunming male mice,significantly prolonged
same,Number of writhing times,"Kunming male mice; Table 4, 50 mg/Kg intraperitoneal, within 30 min",22.3 ± 1.2
same,Writhe starting time,"Kunming male mice; ip, 50 mg/kg",3.3 ± 0.5 min
same,Writhe starting time,"Kunming male mice; ip, 100 mg/kg",4.3 ± 1.6 min
same,Number of writhing times,"Kunming male mice; ip, 100 mg/kg, 0.5 h",14.0 ± 1.7
same,Writhe starting time,"Kunming male mice; ip, 200 mg/kg",8.5 ± 2.4 min
same,Number of writhing times,"Kunming male mice; ip, 200 mg/kg, 0.5 h",4.0 ± 2.3
"CO/N=C(/C1=NOCCO1)c1ccccc1Oc1ncnc(Oc2ccccc2Cl)c1F [Fluoxastrobin, fluoxastrobin]",IC50,[1]; [9],2.63 ± 0.3 µM
